From US6355799B1, “Substituted benzene compounds, process for their preparation, and herbicidal and defoliant compositions containing them” (ISK Americas Incorporated, priority 1997, dated 2002)

Columns and labels:
Assay type in all cases: in vivo
[1] = tested on: field corn (Zea mays L., var. Dekalb 535, CORN); assay: Pre-emerge test, crop safety; settings: pre-emerge, 14 days after application, rating scale 0-100
How it was run: (§1)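 Applied at 15–1000 g ai/ha from acetone in 187 l/ha spray volume. Post-emergence applications included 0.25% v/v non-ionic surfactant and reached plants sown 8–21 days before. Pre-emergence applications were incorporated by surface watering. Efficacy or crop damage was rated on a 0–100 scale after 14 days.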

[2] = tested on: upland rice (Oryza sp., var. Tebonnet, RICE); assay: Pre-emerge test, crop safety; settings: pre-emerge, 14 days after application, rating scale 0-100
How it was run: as §1

[3] = tested on: field corn (Zea mays L., var. Dekalb 535, CORN); assay: Post-emerge test, crop safety; settings: post-emerge, 14 days after application, rating scale 0-100
How it was run: as §1

[4] = tested on: upland rice (Oryza sp., var. Tebonnet, RICE); assay: Post-emerge test, crop safety; settings: post-emerge, 14 days after application, rating scale 0-100
How it was run: as §1

[5] = tested on: barnyardgrass (Echinochloa crus-galli, ECHCG); assay: Post-emerge test, greenhouse herbicide activity screening; settings: post-emerge, 14 days after application, rating scale 0-100
How it was run: (§2)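 Each test used a mechanized track sprayer delivering 187 l/ha of acetone solution at 15–1000 g ai/ha. Post-emerge foliage at 2–3 leaves was treated with added 0.25% v/v non-ionic surfactant and bottom-watered only. Injury was assessed on day 14, where 100 means total kill.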

[6] = tested on: velvetleaf (Abutilon theophrasti, ABUTH); assay: as above; settings: post-emerge, 14 days after application, rating scale 0-100
How it was run: as §2

[7] = tested on: sicklepod (Cassia obtusifolia, CASOB); assay: as above; settings: post-emerge, 14 days after application, rating scale 0-100
How it was run: as §2

[8] = tested on: large crabgrass (Digitaria sanguinalis, DIGSA); assay: as above; settings: post-emerge, 14 days after application, rating scale 0-100
How it was run: as §2

[9] = tested on: redroot pigweed (Amaranthus retroflexus, AMARE); assay: as above; settings: post-emerge, 14 days after application
How it was run: as §2

[10] = tested on: lambsquarters (Chenopodium album, CHEAL); assay: as above; settings: post-emerge, 14 days after application, rating scale 0-100
How it was run: as §2

[11] = tested on: green foxtail (Setaria viridis, SETVI); assay: as above; settings: post-emerge, 14 days after application, rating scale 0-100
How it was run: as §2

[12] = tested on: ivyleaf morningglory (Ipomoea hederacea, IPOHE); assay: as above; settings: post-emerge, 14 days after application, rating scale 0-100
How it was run: as §2

[13] = tested on: redroot pigweed (Amaranthus retroflexus, AMARE); assay: Pre-emerge test, greenhouse herbicide activity screening; settings: pre-emerge; for phytotoxicity rating AMARE: 14 days after application, rating scale 0-100; for Pre-emerge Herbicidal Activity AMARE (phytotoxicity rating, scale 0-100): rated 14 days after application, 0 = no damage, 100 = complete death
How it was run: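 Compounds in acetone were track-sprayed at 187 l/ha, 15–1000 g ai/ha, onto sandy loam pots. Pre-emerge seeds were sown one day before spraying, with surface watering afterwards. Post-emerge plants were at the 2–3 leaf stage and sprayed with 0.25% v/v non-ionic surfactant. Injury was rated 0–100 at 14 days.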

[14] = tested on: barnyardgrass (Echinochloa crus-galli, ECHCG); assay: as above; settings: pre-emerge; for phytotoxicity rating ECHCG: 14 days after application, rating scale 0-100; for Pre-emerge Herbicidal Activity ECHCG (phytotoxicity rating, scale 0-100): rated 14 days after application, 0 = no damage, 100 = complete death
How it was run: as §1

[15] = tested on: velvetleaf (Abutilon theophrasti, ABUTH); assay: as above; settings: pre-emerge; for phytotoxicity rating ABUTH: 14 days after application, rating scale 0-100; for Pre-emerge Herbicidal Activity ABUTH (phytotoxicity rating, scale 0-100): rated 14 days after application, 0 = no damage, 100 = complete death
How it was run: as §1

[16] = tested on: sicklepod (Cassia obtusifolia, CASOB); assay: as above; settings: pre-emerge; for phytotoxicity rating CASOB: 14 days after application, rating scale 0-100; for Pre-emerge Herbicidal Activity CASOB (phytotoxicity rating, scale 0-100): rated 14 days after application, 0 = no damage, 100 = complete death
How it was run: as §1

[17] = tested on: large crabgrass (Digitaria sanguinalis, DIGSA); assay: as above; settings: pre-emerge; for phytotoxicity rating DIGSA: 14 days after application, rating scale 0-100; for Pre-emerge Herbicidal Activity DIGSA (phytotoxicity rating, scale 0-100): rated 14 days after application, 0 = no damage, 100 = complete death
How it was run: as §1

[18] = tested on: lambsquarters (Chenopodium album, CHEAL); assay: as above; settings: pre-emerge; for phytotoxicity rating CHEAL: 14 days after application, rating scale 0-100; for Pre-emerge Herbicidal Activity CHEAL (phytotoxicity rating, scale 0-100): rated 14 days after application, 0 = no damage, 100 = complete death
How it was run: as §1

[19] = tested on: green foxtail (Setaria viridis, SETVI); assay: as above; settings: pre-emerge; for phytotoxicity rating SETVI: 14 days after application, rating scale 0-100; for Pre-emerge Herbicidal Activity SETVI (phytotoxicity rating, scale 0-100): rated 14 days after application, 0 = no damage, 100 = complete death
How it was run: as §1

[20] = tested on: ivyleaf morningglory (Ipomoea hederacea, IPOHE); assay: as above; settings: pre-emerge; for phytotoxicity rating IPOHE: 14 days after application, rating scale 0-100; for Pre-emerge Herbicidal Activity IPOHE (phytotoxicity rating, scale 0-100): rated 14 days after application, 0 = no damage, 100 = complete death
How it was run: as §1

[21] = tested on: johnsongrass (Sorghum halepense, SORHA); assay: as above; settings: pre-emerge; for Pre-emerge Herbicidal Activity SORHA (phytotoxicity rating, scale 0-100): rated 14 days after application, 0 = no damage, 100 = complete death; for phytotoxicity rating SORHA: 14 days after application, rating scale 0-100
How it was run: as §1

COc1c(Cl)cc(F)c(-n2c(=O)cc(C(F)(F)F)n(C)c2=O)c1NN=Cc1ccc2ccccc2c1 [15-22]
95: phytotoxicity rating CORN ([1]; 250 g ai/ha) | Post-emerge Herbicidal Activity SETVI (phytotoxicity rating) ([11]; 250 g ai/ha)
99: phytotoxicity rating RICE ([2]; 250 g ai/ha)
25: phytotoxicity rating CORN ([1]; 63 g ai/ha)
30: phytotoxicity rating RICE ([2]; 63 g ai/ha) | Post-emerge Herbicidal Activity CORN (crop damage rating) ([3]; 63 g ai/ha) | Post-emerge Herbicidal Activity DIGSA (phytotoxicity rating) ([8]; 63 g ai/ha)
50: Post-emerge Herbicidal Activity RICE (crop damage rating) ([4]; 63 g ai/ha) | phytotoxicity rating IPOHE ([20]; 63 g ai/ha)
90: Post-emerge Herbicidal Activity CORN (crop damage rating) ([3]; 250 g ai/ha) | Post-emerge Herbicidal Activity RICE (crop damage rating) ([4]; 250 g ai/ha) | Post-emerge Herbicidal Activity DIGSA (phytotoxicity rating) ([8]; 250 g ai/ha) | phytotoxicity rating SETVI ([19]; 63 g ai/ha)
70: Post-emerge Herbicidal Activity CASOB (phytotoxicity rating) ([7]; 63 g ai/ha)
100: Post-emerge Herbicidal Activity ECHCG (phytotoxicity rating) ([5]; 250 g ai/ha) | Post-emerge Herbicidal Activity ABUTH (phytotoxicity rating) ([6]; 63 g ai/ha) | Post-emerge Herbicidal Activity ABUTH (phytotoxicity rating) ([6]; 250 g ai/ha) | Post-emerge Herbicidal Activity CASOB (phytotoxicity rating) ([7]; 250 g ai/ha) | Post-emerge Herbicidal Activity AMARE (phytotoxicity rating) ([9]; 63 g ai/ha, rating scale 0-100 (0 no damage, 100 complete death)) | Post-emerge Herbicidal Activity AMARE (phytotoxicity rating) ([9]; 250 g ai/ha, rating scale 0-100) | Post-emerge Herbicidal Activity CHEAL (phytotoxicity rating) ([10]; 63 g ai/ha) | Post-emerge Herbicidal Activity CHEAL (phytotoxicity rating) ([10]; 250 g ai/ha) | Post-emerge Herbicidal Activity IPOHE (phytotoxicity rating) ([12]; 63 g ai/ha) | Post-emerge Herbicidal Activity IPOHE (phytotoxicity rating) ([12]; 250 g ai/ha) | phytotoxicity rating AMARE ([13]; 63 g ai/ha) | phytotoxicity rating AMARE ([13]; 250 g ai/ha) | phytotoxicity rating ECHCG ([14]; 250 g ai/ha) | phytotoxicity rating ABUTH ([15]; 63 g ai/ha) | phytotoxicity rating ABUTH ([15]; 250 g ai/ha) | phytotoxicity rating CASOB ([16]; 63 g ai/ha) | phytotoxicity rating CASOB ([16]; 250 g ai/ha) | phytotoxicity rating DIGSA ([17]; 63 g ai/ha) | phytotoxicity rating DIGSA ([17]; 250 g ai/ha) | phytotoxicity rating CHEAL ([18]; 63 g ai/ha) | phytotoxicity rating CHEAL ([18]; 250 g ai/ha) | phytotoxicity rating SETVI ([19]; 250 g ai/ha) | phytotoxicity rating IPOHE ([20]; 250 g ai/ha)
40: Post-emerge Herbicidal Activity ECHCG (phytotoxicity rating) ([5]; 63 g ai/ha) | Post-emerge Herbicidal Activity SETVI (phytotoxicity rating) ([11]; 63 g ai/ha)
60: phytotoxicity rating ECHCG ([14]; 63 g ai/ha)

O=c1cc(C(F)(F)F)[nH]c(=O)n1-c1c(F)cc(Cl)c(O)c1[N+](=O)[O-] [Compound 1-2, 3-(4-chloro-6-fluoro-3-hydroxy-2-nitrophenyl)-6-trifluoromethyl-2,4(1H, 3H)-pyrimidinedione]
20: Pre-emerge Herbicidal Activity SETVI (phytotoxicity rating, scale 0-100) ([19]; 63 g ai/ha)
10: Pre-emerge Herbicidal Activity ABUTH (phytotoxicity rating, scale 0-100) ([15]; 250 g ai/ha)
90: Pre-emerge Herbicidal Activity CASOB (phytotoxicity rating, scale 0-100) ([16]; 63 g ai/ha)
0: Pre-emerge Herbicidal Activity AMARE (phytotoxicity rating, scale 0-100) ([13]; 63 g ai/ha) | Pre-emerge Herbicidal Activity AMARE (phytotoxicity rating, scale 0-100) ([13]; 250 g ai/ha) | Pre-emerge Herbicidal Activity SORHA (phytotoxicity rating, scale 0-100) ([21]; 63 g ai/ha) | Pre-emerge Herbicidal Activity SORHA (phytotoxicity rating, scale 0-100) ([21]; 250 g ai/ha) | Pre-emerge Herbicidal Activity ECHCG (phytotoxicity rating, scale 0-100) ([14]; 63 g ai/ha) | Pre-emerge Herbicidal Activity ECHCG (phytotoxicity rating, scale 0-100) ([14]; 250 g ai/ha) | Pre-emerge Herbicidal Activity DIGSA (phytotoxicity rating, scale 0-100) ([17]; 63 g ai/ha) | Pre-emerge Herbicidal Activity CHEAL (phytotoxicity rating, scale 0-100) ([18]; 63 g ai/ha) | Pre-emerge Herbicidal Activity CHEAL (phytotoxicity rating, scale 0-100) ([18]; 250 g ai/ha) | Pre-emerge Herbicidal Activity SETVI (phytotoxicity rating, scale 0-100) ([19]; 250 g ai/ha) | Pre-emerge Herbicidal Activity IPOHE (phytotoxicity rating, scale 0-100) ([20]; 63 g ai/ha) | Pre-emerge Herbicidal Activity IPOHE (phytotoxicity rating, scale 0-100) ([20]; 250 g ai/ha)
30: Pre-emerge Herbicidal Activity DIGSA (phytotoxicity rating, scale 0-100) ([17]; 250 g ai/ha)
100: Pre-emerge Herbicidal Activity CASOB (phytotoxicity rating, scale 0-100) ([16]; 250 g ai/ha)
50: Pre-emerge Herbicidal Activity ABUTH (phytotoxicity rating, scale 0-100) ([15]; 63 g ai/ha)

COc1c(Cl)cc(F)c(-n2c(=O)cc(C(F)(F)F)n(C)c2=O)c1O [Compound 16-6, 3-(4-chloro-6-fluoro-2-hydroxy-3-methoxyphenyl)-1-methyl-6-trifluoromethyl-2,4(1H, 3H)-pyrimidinedione]
90: phytotoxicity rating ABUTH ([15]; 63 g ai/ha) | phytotoxicity rating CHEAL ([18]; 63 g ai/ha) | phytotoxicity rating IPOHE ([20]; 250 g ai/ha)
70: phytotoxicity rating AMARE ([13]; 63 g ai/ha) | phytotoxicity rating CASOB ([16]; 250 g ai/ha) | phytotoxicity rating DIGSA ([17]; 250 g ai/ha)
40: phytotoxicity rating SETVI ([19]; 250 g ai/ha)
0: phytotoxicity rating SORHA ([21]; 63 g ai/ha) | phytotoxicity rating ECHCG ([14]; 63 g ai/ha) | phytotoxicity rating DIGSA ([17]; 63 g ai/ha) | phytotoxicity rating SETVI ([19]; 63 g ai/ha)
50: phytotoxicity rating SORHA ([21]; 250 g ai/ha) | phytotoxicity rating ECHCG ([14]; 250 g ai/ha) | phytotoxicity rating CASOB ([16]; 63 g ai/ha) | phytotoxicity rating IPOHE ([20]; 63 g ai/ha)
100: phytotoxicity rating AMARE ([13]; 250 g ai/ha) | phytotoxicity rating ABUTH ([15]; 250 g ai/ha) | phytotoxicity rating CHEAL ([18]; 250 g ai/ha)
